# What was measured:
# Assay type in all cases: cell-based, Chinese hamster
# [1] = tested on: cell line 25H9 (CHO cells that produce IL-1R-II protein); test: Example 3: induction with 5-bromo-2′-deoxycytidine 5′-monophosphate, IL-1R-II production
# Method: (§1) About 2×10^6 cells of cell line 25H9 were inoculated into 30 milliliters of serum-free medium and incubated at the temperatures indicated in Table 1 in vented shake flasks. At the times indicated in Table 1, samples were taken from each flask to determine IL-1R-II titer, cell number, and cell viability. IL-1R-II protein titer was determined by ELISA assay. Cell number was determined by counting cells in a hemocytometer. Cell viability was determined by trypan blue staining and counting stained cells in a hemocytometer. Cumulative viable cell density (CVCD) is the area under the curve of a plot of the viable cell density versus time (in units of cells/ml/day). Productivity (pg of IL-1R-II/cell/day) was determined by dividing the protein titer on a particular day by the CVCD on the same day. Cells were fed with amino acids on days 2 and 5, and dextrose was added periodically in order to maintain levels above 2.0 g/L. All samples were done in duplicate, and the data shown is an average value.
# (§2) The following experiment compares the effects of 5-bromo-2′-deoxycytidine 5′-monophosphate and 5-aza-2′-deoxycytidine on induction of protein production. The experiment was done as described in Example 1 with the following exceptions. All cultures were incubated at 31° C., and cell number and viability were determined using a Guava PCA Cytometer (available from Guava Technologies, Hayward, Calif., USA). Samples were done in triplicate.
# [2] = tested on: cell line 25H9 (CHO cells); test: Example 3: cell number (Guava PCA Cytometer); conditions: 31° C.
# Method: as §1, §2
# [3] = tested on: cell line 25H9 (CHO cells that produce IL-1R-II protein); test: Example 2: optimization of temperature and decitabine concentration, IL-1R-II production; conditions: 31° C., 0.5 mM butyrate
# Method: as §1
# (§3) To determine an optimum temperature and decitabine concentration, three temperatures (30° C., 31° C., and 32° C.) and three decitabine concentrations (10 μM, 15 μM, and 20 μM) were tested. A 31° C. culture containing 0.5 mM sodium butyrate was grown as a control. […] See e.g. International Application Nos. WO 89/06686 and WO 87/05626. The experiment was performed as in Example 1 except that the inducer concentrations, temperatures, and days at which data was collected are as indicated in Table 2 and FIG. 1.
# [4] = tested on: cell line 25H9 (CHO cells); test: Example 2: cell number and viability; conditions: 31° C., 0.5 mM butyrate
# Method: as §1, §3
# [5] = Example 2: cell number and viability; conditions: Chinese hamster, 31° C., 0.5 mM butyrate
# Method: as §1, §3
smiles,measurement,setting,value
Nc1nc(=O)n([C@H]2C[C@H](O)[C@@H](COP(=O)(O)O)O2)cc1Br [5-bromo-2′-deoxycytidine 5′-monophosphate],effectiveness at inducing protein production relative to 5-aza-2′-deoxycytidine,[1]; 31° C.,about twice as effective
same,"inducing IL-1R-II production, 10 μM versus 5 μM or 15 μM",[1]; 31° C.,more effective than either 5 μM or 15 μM
same,Titer of IL-1R-II,"[1]; 31° C., 5 μM, day 0",0.0 mg/L
same,Productivity,"[1]; 31° C., 5 μM, day 2",12.4 pg of IL-1RII/cell/day
same,Titer of IL-1R-II,"[1]; 31° C., 5 μM, day 2",67.6 mg/L
same,Productivity,"[1]; 31° C., 5 μM, day 5",13.8 pg of IL-1RII/cell/day
same,Titer of IL-1R-II,"[1]; 31° C., 5 μM, day 5",197.4 mg/L
same,Productivity,"[1]; 31° C., 5 μM, day 7",14.9 pg of IL-1RII/cell/day
same,Titer of IL-1R-II,"[1]; 31° C., 5 μM, day 7",289.1 mg/L
same,Productivity,"[1]; 31° C., 5 μM, day 9",15.2 pg of IL-1RII/cell/day
same,Titer of IL-1R-II,"[1]; 31° C., 5 μM, day 9",357.6 mg/L
same,Titer of IL-1R-II,"[1]; 31° C., 10 μM, day 0",0.0 mg/L
same,Productivity,"[1]; 31° C., 10 μM, day 2",13.4 pg of IL-1RII/cell/day
same,Titer of IL-1R-II,"[1]; 31° C., 10 μM, day 2",75.0 mg/L
same,Productivity,"[1]; 31° C., 10 μM, day 5",17.6 pg of IL-1RII/cell/day
same,Titer of IL-1R-II,"[1]; 31° C., 10 μM, day 5",264.0 mg/L
same,Productivity,"[1]; 31° C., 10 μM, day 7",19.2 pg of IL-1RII/cell/day
same,Titer of IL-1R-II,"[1]; 31° C., 10 μM, day 7",401.4 mg/L
same,Productivity,"[1]; 31° C., 10 μM, day 9",18.6 pg of IL-1RII/cell/day
same,Titer of IL-1R-II,"[1]; 31° C., 10 μM, day 9",484.0 mg/L
same,Titer of IL-1R-II,"[1]; 31° C., 15 μM, day 0",0.0 mg/L
same,Productivity,"[1]; 31° C., 15 μM, day 2",11.4 pg of IL-1RII/cell/day
same,Titer of IL-1R-II,"[1]; 31° C., 15 μM, day 2",61.4 mg/L
same,Productivity,"[1]; 31° C., 15 μM, day 5",12.1 pg of IL-1RII/cell/day
same,Titer of IL-1R-II,"[1]; 31° C., 15 μM, day 5",167.3 mg/L
same,Productivity,"[1]; 31° C., 15 μM, day 7",13.4 pg of IL-1RII/cell/day
same,Titer of IL-1R-II,"[1]; 31° C., 15 μM, day 7",249.1 mg/L
same,Productivity,"[1]; 31° C., 15 μM, day 9",14.2 pg of IL-1RII/cell/day
same,Titer of IL-1R-II,"[1]; 31° C., 15 μM, day 9",318.3 mg/L
same,"inducing IL-1R-II production, all three concentrations versus 10 μM 5-aza-2′-deoxycytidine","[1]; 31° C., 5, 10, 15 μM",more effective than 10 μM 5-aza-2′-deoxycytidine
same,Cumulative Viable Cell Density,"[2]; 5 μM, day 0",0.0 10^6 cells/ml/day
same,Viable Cell Density,"[2]; 5 μM, day 0",2.4 cells/ml × 10^6
same,Cumulative Viable Cell Density,"[2]; 5 μM, day 2",5.5 10^6 cells/ml/day
same,Viable Cell Density,"[2]; 5 μM, day 2",3.1 cells/ml × 10^6
same,Cumulative Viable Cell Density,"[2]; 5 μM, day 5",14.3 10^6 cells/ml/day
same,Viable Cell Density,"[2]; 5 μM, day 5",2.8 cells/ml × 10^6
same,Cumulative Viable Cell Density,"[2]; 5 μM, day 7",19.4 10^6 cells/ml/day
same,Viable Cell Density,"[2]; 5 μM, day 7",2.3 cells/ml × 10^6
same,Cumulative Viable Cell Density,"[2]; 5 μM, day 9",23.5 10^6 cells/ml/day
same,Viable Cell Density,"[2]; 5 μM, day 9",1.8 cells/ml × 10^6
same,Cumulative Viable Cell Density,"[2]; 10 μM, day 0",0.0 10^6 cells/ml/day
same,Viable Cell Density,"[2]; 10 μM, day 0",2.4 cells/ml × 10^6
same,Cumulative Viable Cell Density,"[2]; 10 μM, day 2",5.6 10^6 cells/ml/day
same,Viable Cell Density,"[2]; 10 μM, day 2",3.3 cells/ml × 10^6
same,Cumulative Viable Cell Density,"[2]; 10 μM, day 5",15.0 10^6 cells/ml/day
same,Viable Cell Density,"[2]; 10 μM, day 5",3.0 cells/ml × 10^6
same,Cumulative Viable Cell Density,"[2]; 10 μM, day 7",20.9 10^6 cells/ml/day
same,Viable Cell Density,"[2]; 10 μM, day 7",2.8 cells/ml × 10^6
same,Cumulative Viable Cell Density,"[2]; 10 μM, day 9",26.0 10^6 cells/ml/day
same,Viable Cell Density,"[2]; 10 μM, day 9",2.3 cells/ml × 10^6
same,Cumulative Viable Cell Density,"[2]; 15 μM, day 0",0.0 10^6 cells/ml/day
same,Viable Cell Density,"[2]; 15 μM, day 0",2.4 cells/ml × 10^6
same,Cumulative Viable Cell Density,"[2]; 15 μM, day 2",5.4 10^6 cells/ml/day
same,Viable Cell Density,"[2]; 15 μM, day 2",3.0 cells/ml × 10^6
same,Cumulative Viable Cell Density,"[2]; 15 μM, day 5",13.8 10^6 cells/ml/day
same,Viable Cell Density,"[2]; 15 μM, day 5",2.6 cells/ml × 10^6
same,Cumulative Viable Cell Density,"[2]; 15 μM, day 7",18.6 10^6 cells/ml/day
same,Viable Cell Density,"[2]; 15 μM, day 7",2.2 cells/ml × 10^6
same,Cumulative Viable Cell Density,"[2]; 15 μM, day 9",22.4 10^6 cells/ml/day
same,Viable Cell Density,"[2]; 15 μM, day 9",1.6 cells/ml × 10^6
same,viable cell density versus 10 μM 5-aza-2′-deoxycytidine,[2]; all three concentrations tested,higher
"CCCC(=O)[O-].[Na+] [butyrate, sodium butyrate]",IL1R-II Titer,[3]; day 0,0.0 µg/mL
same,IL1R-II Titer,[3]; day 3,214.0 µg/mL
same,Productivity,[3]; day 3,23.9 pg IL-1R-II/cell/day
same,IL1R-II Titer,[3]; day 6,473.0 µg/mL
same,Productivity,[3]; day 6,22.6 pg IL-1R-II/cell/day
same,IL1R-II Titer,[3]; day 8,862.0 µg/mL
same,Productivity,[3]; day 8,29.8 pg IL-1R-II/cell/day
same,Cumulative Viable Cell Density,[4]; day 0,0 mL⁻¹ day⁻¹
same,Viable Cell Density,[4]; day 0,2e+06 mL⁻¹
same,Cumulative Viable Cell Density,[4]; day 3,8.9e+06 mL⁻¹ day⁻¹
same,Viable Cell Density,[4]; day 3,4e+06 mL⁻¹
same,Cumulative Viable Cell Density,[4]; day 6,2.09e+07 mL⁻¹ day⁻¹
same,Viable Cell Density,[4]; day 6,4e+06 mL⁻¹
same,Cumulative Viable Cell Density,[4]; day 8,2.89e+07 mL⁻¹ day⁻¹
same,Viable Cell Density,[4]; day 8,3.9e+06 mL⁻¹
same,"viability at 0 day, 0.5 mM",[5]; day 0,94.2%
same,"viability at 3 day, 0.5 mM",[5]; day 3,91.7%
same,"viability at 6 day, 0.5 mM",[5]; day 6,88.5%
same,"viability at 8 day, 0.5 mM",[5]; day 8,71.1%
